Measured values published in US12558348B2, “Bioactive phytochemicals” (Phytoquest Limited, priority 2019, dated 2026).

Test system: CD44-HA binding
Experiment: CD44-HA (hyaluronic acid) binding activity in THP-1 cells by ELISA
Type: cell-based, human
Settings: for CD44-HA: LPS-stimulated THP-1; for % reduction in CD44-HA levels: vs LPS control
Experimental: The THP-1 cells were cultured in RPMI media supplemented with mercaptoethanol & glutamine to get 80% confluence in the culture flask, then aspirated and centrifuged at 1500 rpm for 5 mins. The cell pellet was then resuspended in 1 ml of RPMI complete media and counted conventionally using a hemocytometer. The cells (5×106) were incubated with Phorbol 12-myristate 13-acetate (PMA) (10 ng/ml) in separate dishes to cause differentiation of the THP-1 cells. To determine the CD44-HA binding activity, THP-1 cells were pretreated for 1 hr with idoBR1 or cucumber extract-Q-actin (batch no. B17CF001) at the concentrations 100 μg/ml to 12.5 μg/ml and 200 μg/ml to 25 μg/ml respectively followed by 24 hr LPS (1 μg/ml) stimulation. Post incubation, the cell lysates were taken for further analysis.
Anti-CD44 monoclonal antibody (Invitrogen, 2 μg) was coated to each well in 96-well plates in 50 mM carbonate/bicarbonate buffer (pH 9.6) and incubated overnight at 4° C. The unbound antibodies were removed using PBS with 0.05% Tween 20 (PBS-T wash solution). The wells were blocked using 1% BSA and incubated for 1 hr at 37° C. The wells were washed thrice thoroughly using PBS-T wash solution by adding 200 μl into wells. 50 μl cell lysates were added to the wells and incubated for 1 hr at 37° C. The wells were then washed thrice by adding 200 μl of PBS-T by soaking the wells for 30 secs before each wash. Biotinylated-Hyaluronic acid (HA) antibody followed by Streptavidin-HRP was added to form an immune complex and incubated for 60 mins at 37° C. The solution was aspirated and the wells washed thrice with 200 μl wash solution by soaking the wells for 30 secs. 50 μl of both Chromogen A and Chromogen B was added to each well. The plate was incubated for 15 mins away from light at 37° C. The reaction was stopped by adding 50 μl Stop Solution and the absorbance was read at 450 nm.

## O=C(O)[C@@H]1NC[C@H](O)[C@@H](O)[C@@H]1O [idoBR1, (2R,3R,4R,5S)-3,4,5-trihydroxypiperidine-2-carboxylic acid]
12.5 μg/mL
  CD44-HA: 101.48 ng/mL
  % reduction in CD44-HA levels: 8.12%
25 μg/mL
  CD44-HA: 94.93 ng/mL
  % reduction in CD44-HA levels: 14.05%
50 μg/mL
  CD44-HA: 88.43 ng/mL
  % reduction in CD44-HA levels: 19.93%
100 μg/mL
  CD44-HA: 81.04 ng/mL
  % reduction in CD44-HA levels: 26.62%
